According to PMC8987157, “Regioselective One-Pot Synthesis of Hydroxy-(S)-Equols Using Isoflavonoid Reductases and Monooxygenases and Evaluation of the Hydroxyequol Derivatives as Selective Estrogen Receptor Modulators and Antioxidants” (Frontiers in Bioengineering and Biotechnology, 2022):
Several values for one entry are separate records, joined by “and”; a condition that tells them apart may be missing. Equal entries are not always repeated.

Tests used:
ERβ LBD = molecular target: T1, ERβ LBD (Homo sapiens, UniProt Q92731); experiment: ERβ-SRC1 agonistic yeast two hybrid (Y2H) assay, β-galactosidase activity; assay type: cell-based; settings: for β/α ratio of EC50^-1: ERβ over ERα, Y2H; for EC50: Y2H ERβ-SRC1, yeast L40, triplicates
T1 construct: LexA DBD-ERβ LBD (264–510); expressed in transfected cells; host or cells: Saccharomyces cerevisiae L40
Source text: (§1) Microbial strains. Cloning information and used primers for the construction of EcHpaBC and MaFMO encoded vectors are listed in Supplementary Table S1. […] Three EcHpaB mutants were made by site-directed mutagenesis using the listed overlapping primer-containing intended mutations. […] These sets of two vectors (pBTM116:LexA DBD-ERα LBD & pVP16:VP16 AD-(Gly4Ser)2-tSRC1 or pBTM116:LexA DBD-ERβ LBD & pVP16:VP16 AD-(Gly4Ser)2-tSRC1) were transformed in the L40 strains.
(§2) Yeast-two-hybrid assay. The transformed L40 strains were grown in synthetic leucine and tryptophan drop-out (SD L^−W^-) media. […] These plates were incubated at 30 °C with shaking of 1,000 rpm for overnight (∼20 h). After the incubation, the cultures were centrifuged, and the supernatants were discarded. In each well, 500 μL Z-buffer (60 mM Na2HPO4, 40 mM NaH2PO4, 10 mM KCl, and 1 mM MgSO4; pH 7.0) with 1 mM dithiothreitol (DTT) was filled and resuspended. 50 μL of each suspension was taken for OD600 measurement before chloroform treatment. (This value was not used for the measurement of the Miller unit.) Chloroform 50 μL was added to each 450 μL of the suspension, and the solution mixture was shaked for 1 min at 1,000 rpm to disrupt the cell membrane. The disrupted suspensions were kept still at room temperature for 2 min, and 50 μL aqueous aliquots were taken. In polystyrene flat-bottomed 96-well plate, each well was charged with 100 μL of Z-buffer with 1 mM DTT, 50 μL aqueous aliquot, and 50 μL of Z-buffer with 1 mM DTT and 0.4 mg/ml ortho-nitrophenyl-β-galactoside (ONPG). Initially, OD600 of all the wells was measured, and subsequently, OD420 of the same wells was measured for 30 min with a minute interval. […] E/E0=ε/1+10^n(log(EC50)−log([L])),
(§3) where E/E 0 is the normalized Miller unit and ε is the maximum response relative to E2 (ε(E2) = 1). [L] is the concentration of ligands and n is the Hill’s coefficient.

[1] = DPPH radical scavenging assay
Description: DPPH radical scavenging assay. In each well of polystyrene flat-bottom 96-well plates, 200 μL of solution containing 0.1 mM 2,2-diphenyl-1-(2,4,6-trinitrophenyl)hydrazin-1-yl (DPPH) radical, 50% (v/v) MeOH, 10% (v/v) DMSO, specific amount of compounds, and 1x concentration of phosphate buffered saline (PBS) was made. The PBS was prepared with 4x concentration of its original recipe with pH 7.4 and diluted by adding 50 μL in the solution mixture. The plates were incubated at 37°C for 30 min. The OD520 and OD495 of incubated plates were measured. The radical scavenging activity was defined as (OD520/OD495)DMSO- OD520/OD495. (OD520/OD495)DMSO is the OD520/OD495 of the DMSO control without antioxidative compounds. The radical scavenging activity values were normalized with the value of the positive control (1 mM of L-ascorbic acid). The data were triplicated, and the average values were regressed using the following formula.
where E/E 0 is the normalized radical scavenging activity, [L] is the concentration of compounds, and n is the Hill’s coefficient, and EC50 is the value of effective concentration at E/E 0 = 0.5.

ERα LBD = molecular target: T2, ERα LBD (Homo sapiens, UniProt P03372); experiment: ERα-SRC1 agonistic yeast two hybrid (Y2H) assay, β-galactosidase activity; assay type: cell-based; settings: for EC50: Y2H ERα-SRC1, yeast L40, triplicates
T2 construct: expressed in transfected cells; host or cells: Saccharomyces cerevisiae L40
T2 sequence (P03372 312-595): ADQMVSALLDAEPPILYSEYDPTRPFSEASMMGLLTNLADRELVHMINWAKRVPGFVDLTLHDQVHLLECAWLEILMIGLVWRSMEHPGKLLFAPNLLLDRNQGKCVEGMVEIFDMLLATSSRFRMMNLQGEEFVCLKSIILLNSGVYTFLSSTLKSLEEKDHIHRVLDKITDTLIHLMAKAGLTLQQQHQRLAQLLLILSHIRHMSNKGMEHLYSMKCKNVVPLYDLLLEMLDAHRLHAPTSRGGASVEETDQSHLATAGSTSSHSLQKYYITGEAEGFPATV
T2 sequence (Q15788 613-773 partner limits assumed): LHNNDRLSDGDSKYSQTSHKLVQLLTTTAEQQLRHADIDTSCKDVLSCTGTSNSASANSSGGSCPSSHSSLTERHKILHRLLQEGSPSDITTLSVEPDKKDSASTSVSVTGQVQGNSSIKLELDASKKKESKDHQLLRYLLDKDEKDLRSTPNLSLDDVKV
Source text: as §1, §2, §3

ERα = system: ERα; set-up: method as in Lee et al., 2017; settings: ref Lee et al., 2017; cited from earlier work

T1 sequence (Q92731 264-510, one chain of several): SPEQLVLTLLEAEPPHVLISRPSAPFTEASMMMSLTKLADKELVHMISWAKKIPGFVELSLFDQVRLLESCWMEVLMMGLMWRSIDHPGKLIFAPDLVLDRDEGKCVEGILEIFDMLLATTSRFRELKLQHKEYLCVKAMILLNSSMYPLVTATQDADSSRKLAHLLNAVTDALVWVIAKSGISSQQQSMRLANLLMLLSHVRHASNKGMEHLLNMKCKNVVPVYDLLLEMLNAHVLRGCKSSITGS

With Oc1ccc2c(c1)OC[C@H](c1ccc(O)c(O)c1)C2 [3'-hydroxy-(S)-equol, 3′-hydroxy-(S)-equol] the “fold higher EC50 than (S)-equol” value (ERβ LBD; ERβ) was 30∼200 fold, the “β/α ratio of EC50^-1” value (ERβ LBD) was 1.15 and the EC50 (ERβ LBD) was 10 to 100 µM and 17.9 µM. For the same molecule, the “antioxidative activity higher than 3′HD” value [1] was “more than 40%”, the “fold higher EC50 than (S)-equol” value (ERα LBD; ERα) was 30∼200 fold and the EC50 (ERα LBD) was 10 to 100 µM and 20.6 µM.

In the case of Oc1ccc([C@H]2COc3cc(O)cc(O)c3C2)cc1 [5-hydroxy-(S)-equol], the “binding affinity ERα versus ERβ” value (ERα) is listed as “higher binding affinity to ERα than ERβ”, the “response in Y2H agonist assay” value (ERβ LBD; ERβ, concentrations in the range of 10^–8∼10^–3 M) is listed as “did not show any response” and the “response in Y2H agonist assay” value (ERα LBD; ERα, concentrations in the range of 10^–8∼10^–3 M) is listed as “did not show any response”.

For Oc1ccc([C@H]2COc3cc(O)c(O)cc3C2)cc1 [6-hydroxy-(S)-equol], the “lower β/α ratio response than that of 17β-estradiol” value (ERβ LBD) was 10%, the “fold higher EC50 than (S)-equol” value (ERβ LBD; ERβ) was 30∼200 fold and the “β/α ratio of EC50^-1” value (ERβ LBD) was 1.00. For the same molecule, the EC50 (ERβ LBD) was 10 to 100 µM and 102 µM, the “fold higher EC50 than (S)-equol” value (ERα LBD; ERα) was 30∼200 fold and the EC50 (ERα LBD) was 10 to 100 µM and 102 µM.

For Oc1ccc([C@H]2COc3cc(O)ccc3C2)cc1 [(S)-equol], the “weaker estrogenic activity than E2” value (ERβ LBD; ERβ) was “about 3 orders of magnitude”, the “β/α ratio of EC50^-1” value (ERβ LBD) was 1.31 and the EC50 (ERβ LBD) was 0.506 µM. For the same molecule, the “weaker estrogenic activity than E2” value (ERα LBD; ERα) was “about 3 orders of magnitude” and the EC50 (ERα LBD) was 0.665 µM.
